Assay results taken from PMC6199744, “Development of Chemical Proteomics for the Folateome and Analysis of the Kinetoplastid Folateome” (ACS Infectious Diseases, 2018).

Tested on: L. major lysate proteins
Test: Multitargeted bead mixture chemoproteomics, single concentration competition, proteome-wide
Type: binding

NCCCNc1ccc(C(=O)NC(CCC(=O)O)C(=O)O)cc1 (stereo not drawn) [compound 7]
fold change (protein LMJF.35.0420 40S RIBOSOMAL PROTEIN S3A, PUTATIVE, vehicle control = 1): 1.04 | fold change relative to vehicle control (protein LMJF.35.1220, SHORT CHAIN DEHYDROGENASE, PUTATIVE): 1.22 | fold change relative to vehicle control (protein LMJF.35.1380, MIT[…], BETA SUBUNIT, PUTATIVE): 1.09 | fold change vs vehicle control (protein LMJF.35.1830 HYPOTHETICAL PROTEIN, CONSERVED): 0.96 | fold change vs vehicle control (protein LMJF.35.3340 6-phosphogluconate dehydrogenase): 1.02 | fold change (protein LMJF.35.3700 GIM5A PROTEIN, PUTATIVE,GLYCOSOMAL MEMBRANE PROTEIN, vehicle control = 1): 0.89 | fold change vs vehicle control (protein LMJF.35.3760 60S RIBOSOMAL PROTEIN L27A/L29, PUTATIVE): 0.84 | fold change relative to vehicle control (protein LMJF.35.3840, […] 2 SUBUNIT, PUTATIVE): 1.34 | fold change vs vehicle control (protein LMJF.35.3860 T-COMPLEX PROTEIN 1, ETA SUBUNIT, PUTATIVE): 0.92 | fold change (protein LMJF.35.4420 MIT[…] TRANSPORTER, PUTATIVE, vehicle control = 1): 1.06 | fold change relative to vehicle control (protein LMJF.35.4880, HYPOTHETICAL PROTEIN, CONSERVED (TPR repeat, putative)): 0.98 | fold change relative to vehicle control (protein LMJF.35.5330, ISOPENTENYL-D[…]-ISOMERASE, PUTATIVE): 1.02 | fold change relative to vehicle control (protein LMJF.36.0070, STRESS-INDUCIBLE PROTEIN STI1 HOMOLOG): 1.21 | fold change (protein LMJF.36.0480 HY[…], CONSERVED, vehicle control = 1): 1.01 | fold change vs vehicle control (protein LMJF.36.0620 HY[…], CONSERVED): 1.07 | fold change vs vehicle control (protein LMJF.36.0930 40S RIBOSOMAL PROTEIN S18, PUTATIVE): 1.09 | fold change vs vehicle control (protein LMJF.36.0990 40S RIBOSOMAL PROTEIN S10, PUTATIVE): 1.03 | fold change (protein LMJF.36.1140 SHORT CHAIN 3-HYDROXYACYL-COA DEHYDROGENASE, PUTATIVE, vehicle control = 1): 0.85 | fold change relative to vehicle control (protein LMJF.36.1260, FRUCTOSE-1,6-BI[…]): 1.01 | fold change (protein LMJF.36.1340 N-ACETYLTRANSFERASE SUBUNIT NAT1, PUTATIVE, vehicle control = 1): 0.79 | fold change vs vehicle control (protein LMJF.36.1650 PROTEASOME BETA 5 SUBUNIT, PUTATIVE): 0.99 | fold change relative to vehicle control (protein LMJF.36.2380, STEROL 24-C-METHYLTRANSFERASE, PUTATIVE): 0.97 | fold change vs vehicle control (protein LMJF.36.2950 SUCCINYL-COA LIGASE GDP-FORMING] BETA-CHAIN, PUTATIVE): 1 | fold change vs vehicle control (protein LMJF.36.3210 14-3-3 PROTEIN-LIKE PROTEIN): 0.87 | fold change vs vehicle control (protein LMJF.36.3410 SHORT CHAIN DEHYDROGENASE-LIKE PROTEIN): 1.26 | fold change (protein LMJF.36.3460 HYPOTHETICAL PROTEIN, CONSERVED (NIPSNAP, putative), vehicle control = 1): 0.88 | fold change (protein LMJF.36.3580 HY[…], CONSERVED (Protein of unknown function (DUF2009), putative), vehicle control = 1): 1.12 | fold change (protein LMJF.36.3750 40S RIBOSOMAL PROTEIN S27-1, PUTATIVE, vehicle control = 1): 1.02 | fold change vs vehicle control (protein LMJF.36.5010 40S RIBOSOMAL PROTEIN SA, PUTATIVE): 1.12 | fold change vs vehicle control (protein LMJF.36.5130 HY[…], CONSERVED): 1.42 | fold change vs vehicle control (protein LMJF.36.5150 HYPOTHETICAL PROTEIN, CONSERVED): 0.97 | fold change relative to vehicle control (protein LMJF.36.5380, NADH DEHYDROGENASE, PUTATIVE): 1.14 | fold change vs vehicle control (protein LMJF.36.5390 PHOSPHORIBOSYLPYROPHOSPHATE SYNTHETASE, PUTATIVE): 0.89 | fold change vs vehicle control (protein LMJF.36.5620 ISOLEUCYL-TRNA SYNTHETASE, PUTATIVE): 1 | fold change (protein LMJF.36.6430 PROTEIN TRANSPORT PROTEIN SEC23-LIKE PROTEIN, vehicle control = 1): 0.89 | fold change vs vehicle control (protein LMJF.36.6760 HY[…], CONSERVED): 1.01 | fold change relative to vehicle control (protein LMJF.[…], MIT[…] BETA SUBUNIT, PUTATIVE): 0.91 | fold change relative to vehicle control (protein LMJF.[…], POLY(A) EXPORT PROTEIN, PUTATIVE): 1.14 | fold change (vs vehicle control, protein LINJ.20.0630 CYTIDINE TR[…], PUTATIVE,CTP SYNTHASE, PUTATIVE): 1.04 | fold change (vs vehicle control, protein LINJ.20.1390 COATOMER BETA SUBUNIT, PUTATIVE): 0.87 | fold change (vs vehicle control, protein LMJF.05.1140 VACUOLAR ATPASE SUBUNIT-LIKE PROTEIN): 0.93 | fold change (vs vehicle control, protein LMJF.07.1090 DELTA-5 FATTY ACID DESATURASE): 0.92 | fold change (vs vehicle control, protein LMJF.09.0220 HYPOTHETICAL PROTEIN, CONSERVED): 0.78 | fold change (vs vehicle control, protein LMJF.11.1030 HYPOTHETICAL PROTEIN, CONSERVED): 0.93 | fold change (vs vehicle control, protein LMJF.14.0640 FATTY ACID ELONGASE, PUTATIVE): 0.8 | fold change (vs vehicle control, protein LMJF.14.0705 FATTY ACID ELONGASE, PUTATIVE): 1.17 | fold change (vs vehicle control, protein LMJF.14.1120 KINESIN K39, PUTATIVE): 0.6 | fold change (vs vehicle control, protein LMJF.16.1610 PROHIBITIN): 1.07 | fold change (vs vehicle control, protein LMJF.17.0010 HYPOTHETICAL PROTEIN, CONSERVED): 0.87 | fold change (vs vehicle control, protein LMJF.18.1130 RAS-RELATED PROTEIN RAB-5, PUTATIVE): 0.68 | fold change (vs vehicle control, protein LMJF.19.1420 CYSTEINE PEPTIDASE A (CPA)): 0.9 | fold change (vs vehicle control, protein LMJF.21.0280 HY[…], CONSERVED): 0.94 | fold change (vs vehicle control, protein LMJF.22.1560 40S RIBOSOMAL PROTEIN L14, PUTATIVE): 0.7 | fold change (vs vehicle control, protein LMJF.23.1220 T-COMPLEX PROTEIN 1, GAMMA SUBUNIT, PUTATIVE): 1.02 | fold change (vs vehicle control, protein LMJF.24.0370 ASPARTATE AMINOTRANSFERASE, PUTATIVE): 1.01 | fold change (vs vehicle control, protein LMJF.25.1770 ENOYL-COA REDUCTASE, PUTATIVE): 1.02 | fold change (vs vehicle control, protein LMJF.26.0170 60S RIBOSOMAL PROTEIN L7, PUTATIVE): 0.9 | fold change (vs vehicle control, protein LMJF.26.1550 TRI[…] ALPHA SUBUNIT, MIT[…]-LIKE PROTEIN): 1.06 | fold change (vs vehicle control, protein LMJF.26.1610 PROLINE OXIDASE, MITOCHONDRIAL PRECURSOR-LIKE PROTEIN): 0.83 | fold change (vs vehicle control, protein LMJF.28.1950 X-PRO, DIPEPTIDYL-PEPTIDASE,SERINE PEPTIDASE, CLAN SC, FAMILY S15, PUTATIVE): 1.14 | fold change (vs vehicle control, protein LMJF.31.1070 BIOTIN/LIPOATE PROTEIN LIGASE-LIKE PROTEIN): 0.87 | fold change (vs vehicle control, protein LMJF.32.1370 HYPOTHETICAL PROTEIN, CONSERVED): 0.91 | fold change (vs vehicle control, protein LMJF.34.0490 IMPORTIN BETA-1 SUBUNIT, PUTATIVE): 0.78 | fold change (vs vehicle control, protein LMJF.34.4060 UBIQUITIN HYDROLASE, PUTATIVE,CYSTEINE PEPTIDASE, CLAN CA, FAMILY C19, PUTATIVE): 0.91 | fold change (vs vehicle control, protein LMJF.36.1600 PROTEASOME ALPHA 1 SUBUNIT, PUTATIVE): 0.95 | fold change (vs vehicle control, protein LMJF.[…] RIBOSOMAL PROTEIN S7, PUTATIVE): 1
